# Reference: US12551526B2, “Enterically delivered bitter oligopeptides for the treatment for type 2 diabetes” (Cedars-Sinai Medical Center, priority 2015, dated 2026)
# Residue numbers refer to the chain shown, from its start. Entries after “also recorded” stand apart in the source; their conditions may differ. Where two headings read alike, the source gives them in different places.
# Key:
# [1] = test system: HuTu-80 cells; settings: previous studies; cited from earlier work
# [2] = target: T1, hTAS2R38PAV (Homo sapiens, UniProt P59533); settings: taster haplotype; cited from earlier work
# T1 sequence (P59533 1-333): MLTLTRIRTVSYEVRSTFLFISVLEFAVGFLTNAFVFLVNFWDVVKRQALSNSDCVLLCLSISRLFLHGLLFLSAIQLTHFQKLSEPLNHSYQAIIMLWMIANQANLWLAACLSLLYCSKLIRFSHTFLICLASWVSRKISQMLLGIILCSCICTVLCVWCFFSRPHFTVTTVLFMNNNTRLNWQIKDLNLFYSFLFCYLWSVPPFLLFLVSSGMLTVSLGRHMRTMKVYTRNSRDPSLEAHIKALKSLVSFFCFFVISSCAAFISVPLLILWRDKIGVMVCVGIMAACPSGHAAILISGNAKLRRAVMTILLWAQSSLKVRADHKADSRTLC
# [3] = target: T2, hTAS2R38AVI (Homo sapiens, UniProt P59533, A262V); settings: non-taster haplotype; cited from earlier work
# T2 sequence (P59533 1-333 A262V): T1 sequence (P59533 1-333) with A262V
# [4] = test system: HuTu-80 cells; assay: GLP-1 release from cultured HuTu-80 cells (Luminex assay); format: cell-based, human; settings: for GLP-1 release: HuTu-80 cells treated 30 min, GLP-1 in conditioned media; for increase in GLP-1 over the basal release / GLP-1 release compared with TAS2R38 ligands PTC and PTU: HuTu-80 cells; for increase in GLP-1 over the basal release: 30 min, FIG. 9A; for GLP-1 release compared with TAS2R38 ligands PTC and PTU: FIG. 9B, PTC and PTU 10 mM
# Method: HuTu-80 cells were untreated (zero-time) or treated with vehicle and various phytochemicals at indicated concentrations for 30 min. […] Values are mean±SE, N=3, *P<0.05, **P<0.01
# HuTu-80 cells (HTB-40, ATCC) were propagated in Dulbecco's modified Eagle's medium (DMEM) containing 4 mM L-glutamine, 1.5 g/L sodium bicarbonate, and 4.5 g/L glucose, supplemented with 10% FBS and PSG antibiotic mix and maintained at 10% CO2 and 37° C. For experiments, these cells were seeded in 6-well plates or […] tissue culture dishes, propagated to confluence (5-7 days) and arrested in serum-free media overnight prior to treatments. Prior to the experiment, spent media was replaced with OPTI-MEM (Gibco, Life Technologies, Grand Island, NY) containing Halt Protease and Phosphatase Inhibitor cocktail (Thermo Fisher Scientific, Rockford, IL) and individual wells dosed for 30 min. […] The media from cells was collected and frozen for subsequent peptide hormone release measurement using a Luminex MAGPIX metabolism multiplexing assay kit (HMHMAG-34K) following the manufacturer's instructions.
# [5] = target: T3, TAS2R38 (Homo sapiens, UniProt P59533); assay: GLP-1 release in HuTu-80 cells with TAS2R38 siRNA knockdown; format: cell-based; settings: siTAS2R38 versus siCONTROL, 30 min
# T3 construct: Cultured HuTu-80 cells were transfected with single and mixed oligonucleotide siRNAs for TAS2R38; host or cells: HuTu-80
# T3 sequence (P59533 1-333): T1 sequence (P59533 1-333)
# Method: In order to determine the specific GPCR mediating the response of a particular ligand, we performed in vitro RNA silencing of TAS2R38. RNA silencing was performed using a commercial kit (FlexiTube siRNA, Qiagen) consisting of 4 predesigned oligonucleotides that specifically target each gene transcript. Each kit also had accompanying controls and quantifying assays for detection of gene knockdown. Cultured HuTu-80 cells were transfected with single and mixed oligonucleotide siRNAs for TAS2R38 using HiPerFect transfection reagent (Qiagen) or Lipofectamine 2000 (Life Tech) according to the procedure recommended by the manufacturer. Cells were maintained in the basal medium for up to 48 h. Gene knockdown was evaluated by RT-qPCR and Western blot by suitable antibody to ensure inhibition occurred. […] Dose-response curve of the ligand with and without siRNA treatment was generated.
# FIGS. 6, 7, and 8 show the receptor expression and knockdown in HuTu-80 cells using a TAS2R38 receptor siRNA.
# Conditioned media were collected and frozen until GLP-1 measurement. Values are mean±SD, N=3. GLP-1 is measured using Luminex assay.
# [6] = test system: GLP-1 release; assay: In vivo GLP-1 release in mice after gastric gavage; settings: PTU-cellulose 5 g/kg, PTU 200 mg/kg, FIG. 4B
# Method: FIG. 4A Synthesis of PTU-cellulose.
# Retro-orbital blood was obtained and GLP-1 was measured at regular intervals.
# The molecules were administered by gastric gavage to pathogen-free, 6-to-8-week-old male BALB/c mice. […] The cellulose alone had no effect.
# [7] = test system: HuTu-80 cells; assay: GLP-1 release from cultured HuTu-80 cells (Luminex assay); format: cell-based, human; settings: FIG. 3; printed as based on in vivo studies in mice
molecule,measurement,setting,value
"NC(=S)Nc1ccccc1 [PTC, Phenylthiocarbamide]",GLP-1 release,[1],GLP-1 release
same,receptor response,[2],strong response at μM concentrations
same,receptor response,[3],does not respond
"CCCc1cc(=O)[nH]c(=S)[nH]1 [PTU, 6-n-propylthiouracil]",GLP-1 release,[4],caused GLP-1 release
same,GLP-1 release when TAS2R38 expression is knocked down,[5],right-shifted
same,GLP-1 release into the blood,[6],caused GLP-1 release into the blood
O=c1oc2c(O)c(O)cc3c(=O)oc4c(O)c(O)cc1c4c23 [ellagic acid],increase in GLP-1 over the basal release,[4],significant increases
CN(C)C(=N)N=C(N)N [metformin],GLP-1 release,[4],can activate GLP-1 release
CC1(C)CC[C@]2(C(=O)O)CC[C@]3(C)C(=CC[C@@H]4[C@@]5(C)CC[C@H](O)C(C)(C)[C@@H]5CC[C@]43C)[C@@H]2C1 [oleanolic acid],increase in GLP-1 over the basal release,[4],significant increases
"CCCCCCCCCCCCCCCC(=O)O [palmitate, palmitic acid]",GLP-1 release,[4],GLP-1 secretory response was also observed
same,GLP-1 release compared with TAS2R38 ligands PTC and PTU,[4],stimulate GLP-1 release comparable to that by TAS2R38 ligands PTC and PTU
CCC(=O)O [propionate],GLP-1 release,[4],GLP-1 secretory response was also observed
same,GLP-1 release compared with TAS2R38 ligands PTC and PTU,[4],stimulate GLP-1 release comparable to that by TAS2R38 ligands PTC and PTU
O=c1oc2cc(O)ccc2c2ccc(O)cc12 [urolithin A],increase in GLP-1 over the basal release,[4],significant increases
"Ala-Ala-Ala-Ala (AAAA; printed: Ala-Ala-Ala-Ala) [PolyAla, scrambled PolyAla control peptide]",GLP-1 release,[4],in effective at causing GLP-1 release
"YGLF [BPx1, bitter oligopeptide derived from milk-whey proteins]",GLP-1 release when TAS2R38 expression is knocked down,[5],predominantly through TAS2R38; also recorded: decreased
same,potency rank among the four oligopeptides,[7],most potent
"YPFPGPIPN [BPx2, bitter oligopeptide derived from milk-whey proteins]",potency rank among the four oligopeptides,[7],most potent
